Consider 9 compounds from US7781428B2 (Pfizer Inc., priority 2006, dated 2010).

Structures are written as SMILES.

In this test the target is T1, mineralocorticoid receptor (MR) (Homo sapiens, UniProt P08235).
T1 construct: expressed in transfected cells; host or cells: Huh7 (human liver cells)
T1 sequence (P08235 726-964 limits assumed): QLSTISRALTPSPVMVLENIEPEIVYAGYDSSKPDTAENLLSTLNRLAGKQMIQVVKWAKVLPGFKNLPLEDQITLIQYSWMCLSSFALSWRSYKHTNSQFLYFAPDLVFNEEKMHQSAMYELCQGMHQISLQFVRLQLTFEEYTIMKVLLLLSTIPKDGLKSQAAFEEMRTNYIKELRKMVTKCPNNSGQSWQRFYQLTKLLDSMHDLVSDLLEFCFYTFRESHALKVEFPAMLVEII
The test is described as follows: Cell-based Gal4 response element-controlled luciferase reporter assay (MR antagonism). The conditions noted are these: Huh7 human liver cells transfected with Gal4 DBD-MR LBD fusion and luciferase reporter; block of agonist-induced activation; overnight incubation. An outline of the steps:
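Transiently transfected Huh7 cells were treated with agonist at 70-80% of full activation plus compounds for 18-20 h in medium with charcoal/dextran-stripped serum. Luciferase read-out was normalized to β-galactosidase (ONPG, OD420); IC50 came from curve fitting.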
Broadly, the IC50 is the concentration at which inhibition is half-maximal. Take `N#Cc1ccc(N2N=C3c4ccc(O)cc4CC[C@@H]3[C@@H]2c2ccc(F)cc2)cc1Cl` [Example 87, 2-chloro-4-((3R,3aR)-3-(4-fluorophenyl)-7-hydroxy-3,3a,4,5-tetrahydrobenzo[g]indazol-2-yl)benzonitrile]: the IC50 was 36 nM.

For the compound `N#Cc1ccc(N2N=C3c4ccc(O)cc4CC[C@H]3[C@H]2c2ccc(F)cc2)cc1Cl` [Example 88, 2-chloro-4-((3S,3aS)-3-(4-fluorophenyl)-7-hydroxy-3,3a,4,5-tetrahydrobenzo[g]indazol-2-yl)benzonitrile], the IC50 was above 1000 nM.

Consider `CC(=O)Nc1ccc2c(c1)CCC1C2=NN(c2ccc(C#N)c(Cl)c2)C1C1CCCC1` (stereo not drawn) [Example 91, N-(-2-(3-chloro-4-cyanophenyl)-3-cyclopentyl-3,3a,4,5-tetrahydro-2H-benzo[g]indazol-7-yl)acetamide], for which the IC50 is 5 nM.

As for `C[C@]12CCc3cc(C(=O)O)ccc3C1=NN(c1ccc(C#N)c(Cl)c1)[C@H]2C1CCCC1` [Example 94, (3S,3aR)-2-(3-chloro-4-cyanophenyl)-3-cyclopentyl-3a-methyl-3,3a,4,5-tetrahydro-2H-benzo[g]indazole-7-carboxylic acid], the IC50 was 25 nM.

For the compound `CS(=O)(=O)CCNC(=O)c1ccc2c(c1)CC[C@H]1C2=NN(c2ccc(C#N)c(Cl)c2)[C@H]1c1ccc(F)cc1` [Example 95, (3R,3aR)-2-(3-chloro-4-cyanophenyl)-3-(4-fluorophenyl)-N-(2-(methylsulfonyl)ethyl)-3,3a,4,5-tetrahydro-2H-benzo[g]indazole-7-carboxamide], the IC50 was determined as 2 nM.

Take `CS(=O)(=O)CCNC(=O)c1ccc2c(c1)CC[C@H]1C2=NN(c2ccc(C#N)c(Cl)c2)[C@H]1C1CCCC1` [Example 114, (3S,3aR)-2-(3-chloro-4-cyanophenyl)-3-cyclopentyl-N-(2-(methylsulfonyl)ethyl)-3,3a,4,5-tetrahydro-2H-benzo[g]indazole-7-carboxamide]: the IC50 is 1 nM.

Turning to `N#Cc1ccc(N2N=C3c4ccc(C(=O)NCCO)cc4CC[C@@H]3[C@@H]2C2CCCC2)cc1Cl` [Example 115, (3S,3aR)-2-(3-chloro-4-cyanophenyl)-3-cyclopentyl-N-(2-hydroxyethyl)-3,3a,4,5-tetrahydro-2H-benzo[g]indazole-7-carboxamide], the IC50 amounted to 3 nM.

On to `Cc1ccc([C@H]2[C@H]3CCc4cc(C(=O)NCCS(C)(=O)=O)ccc4C3=NN2c2ccc(C#N)c(Cl)c2)o1` [Example 117, (3R,3aR)-2-(3-chloro-4-cyanophenyl)-3-(5-methyl-2-furyl)-N-[2-(methylsulfonyl)ethyl]-3,3a,4,5-tetrahydro-2H-benzo[g]indazole-7-carboxamide], for which the concentration for half-maximal inhibition (IC50) is 3 nM.

Turning to `Cc1ncc(C2C3CCc4cc(C(=O)NCCS(C)(=O)=O)ccc4C3=NN2c2ccc(C#N)c(Cl)c2)s1` (stereo not drawn) [Example 118, 2-(3-chloro-4-cyanophenyl)-N-[2-(methylsulfonyl)ethyl]-3-(2-methyl-1,3-thiazol-5-yl)-3,3a,4,5-tetrahydro-2H-benzo[g]indazole-7-carboxamide], the half-maximal inhibitory concentration (IC50) stood at 19 nM.
